Results: PMC6271500, “Bowman-Birk Protease Inhibitor from Vigna unguiculata Seeds Enhances the Action of Bradykinin-Related Peptides” (Molecules, 2014)

Legend:
BTCI [1] = assay: Dynamic light scattering, BTCI-Bk complex formation; type: binding, Vigna unguiculata
Method: (§1) The hydrodynamic properties of the BTCI through the complex formation with Bk and analogues were monitored using DLS technique with laser source operated at 800 nm on the DynaPro LSR model (Wyatt Technology Corporation, Santa Barbara, CA, USA). The internal temperature was controlled by a Peltier system coupled to the detector. The Bk, Bk-related peptides, BTCI and BTCI-Bk, BTCI-Bk-related peptides complexes, were incubated for 30 minutes in 2 mM Tris-HCl pH 7.4 and then centrifuged at 5000 g and filtered ([…]) before the DLS experiments. The average of 100 acquisitions for each measure was considered for BTCI (25 µM) and synthetic Bk-related peptides (25 µM) separately and subsequently for the BTCI-Bk complexes (1:1). The formation of complexes was analyzed at 37 °C, considering the relationship of the scattered light intensity signal and the hydrodynamic diameter of the samples, using the Dynamics V6 program (Wyatt Technology Corporation).

bovine chymotrypsin = assay: Chymotrypsin inhibition by BTCI (GPNA substrate); type: biochemical; conditions: BTCI 40 µM, peptide 0–10 µM
Method: The inhibitory activities of BTCI against bovine pancreatic trypsin (25 kDa; A280^1% = 15.90) and chymotrypsin (24 kDa; A280^1% = 20.40) (Sigma Co.) were first determined in the absence of Bk and Bk-related peptides. Briefly, the residual enzymatic activities were assayed by mixing 40 µL of chymotrypsin (28.60 µM) or trypsin (2.57 µM) with BTCI at concentration range of 0–10 µM for trypsin and 0–40 µM for chymotrypsin at 25 °C for 15 minutes. After that, 200 µL of 0.40·mg·mL^−1 N-glutaryl-L-phenylalanine-p-nitroanilide (GPNA) in 50 mM Tris-HCl, 20 mM CaCl2, pH 7.6 for chymotrypsin assay or 0.43 mg·mL^−1 Nα-benzoyl-DL-arginine 4-nitroanilide hydrochloride (BAPNA) in 50 mM Tris-HCl, 20 mM CaCl2, pH 8.2 for trypsin assay were added. Substrate hydrolysis was done for 15 minutes and stopped by adding 30% (v/v) acetic acid. The enzymatic assays were also carried out in the presence of Bk at similar concentration of BTCI. The relative enzymatic activities were evaluated by the liberation of p-nitroanilide, which was monitored at 410 nm using a SpectraMax Plus 384 Microplate Reader spectrophotometer (Molecular Devices, Sunnyvale, CA, USA). The obtained values are an average of three independent measurements. Inhibition curves were obtained by plotting relative activities of the proteases vs. BTCI concentration in the absence or presence of Bk and Bk-related peptides. […]

[2] = Dynamic light scattering, free peptides and free BTCI; type: physicochemical; conditions: 25 µM, 2 mM Tris-HCl pH 7.4, 37 °C
Method: as §1

BTCI [3] = assay: Fluorescence quenching of BTCI by Bk-related peptides; type: binding, Vigna unguiculata; conditions: for Binding constant Kb (association) of BTCI in complex with peptide / Stern-Volmer quenching constant KSV of BTCI in complex with peptide: BTCI 25 µM, peptide 25-500 µM; for Stern-Volmer quenching constant KSV of BTCI in complex with peptide: excitation 295 nm, emission at 355 nm
Method: Fluorescence measurements were performed at pH 5.0, 7.4 and 9.0 and 25 °C using the Jasco FP-6500 spectrofluorimeter (Jasco Analytical Instruments) coupled to a Jasco ETC-273T Peltier system (Jasco Analytical Instruments) with water circulation. Both excitation and emission slit were fitted to 5.0 nm and the excitation and emission wavelength were 295 nm and 300–400 nm, respectively. The concentration of BTCI was 25 µM, whereas the concentration of Bk and Bk-related peptides varied from 25 to 500 µM. The BTCI in complex with peptides were investigated by fluorescence quenching as a function of pH. The averages of five fluorescence spectra were recorded and processed by the program Spectra Manager (Jasco Analytical Instruments). The fluorescence emissions were fitted according to the classic Stern-Volmer equation (Equation (2)): F0/F = 1 + KSV[Q] (2) where F and F0 are the fluorescence intensities in the presence and absence of quencher, respectively, KSV is Stern-Volmer constant and Q is the concentration of the quencher.
The binding constants for BTCI, Bk and Bk-related peptides interaction were calculated according to Equation (3): Log[(F0 − F)/F] = LogKb + nLog[Q] (3) where Kb is the binding constant and n is the number of binding sites per BTCI [47].

## [Val]^1[Thr]^6-bradykinyl-Gln-Ser [Bk2]
BTCI [1]; 1:1 complex, pH 7.4, 37 °C
  polydispersity of peptide complexed with BTCI (in words): moderate polidispersity
BTCI [1]; BTCI 25 µM : peptide 25 µM (1:1), 30 min, 2 mM Tris-HCl pH 7.4, 37 °C
  hydrodynamic diameter of BTCI in the presence of peptide: increased from 1.7 nm to 3.3 nm
Bovine chymotrypsin
  effect of peptide on BTCI inhibition of chymotrypsin: did not interfer in their activities
[2]
  polydispersity, peptide: lower than 0.15
BTCI [3]; pH 5.0, 25 °C
  binding sites (n) per BTCI molecule: 1.04
  Binding constant Kb (association) of BTCI in complex with peptide: 590 M⁻¹
  Stern-Volmer quenching constant KSV of BTCI in complex with peptide: 425 M⁻¹
BTCI [3]; pH 7.4, 25 °C
  binding sites (n) per BTCI molecule: 0.89
  Binding constant Kb (association) of BTCI in complex with peptide: 220 M⁻¹
  Stern-Volmer quenching constant KSV of BTCI in complex with peptide: 509 M⁻¹
BTCI [3]; pH 9.0, 25 °C
  binding sites (n) per BTCI molecule: 1.23
  Binding constant Kb (association) of BTCI in complex with peptide: 1810 M⁻¹
  Stern-Volmer quenching constant KSV of BTCI in complex with peptide: 384 M⁻¹
